From patent US20250066388A1, “1,3,4,7-TETRAHYDRO-2H-PYRROLO[3',2':5,6]PYRIDO[2,3-B][1,4]OXAZEPINE BCL-2 INHIBITORS” (AbbVie Inc., priority 2022, published 2025)

Assays:
[1] = tested on: RS4;11 cells; test: Cell viability assay (CellTiter-Glo) in RS4;11 cells; type: cell-based; details: 10% Human Serum
Experimental: (§1) The acute lymphoblastic leukemia (ALL) human cell line RS4;11 (ATCC, Manassas VA) was used as the primary human cell line to assess the cellular activity of compound of the present Examples in vitro and their efficacy in vivo. […] The acute lymphoblastic leukemia cell line Molt-4, which is derived from immature T-lymphoid cells (T-ALL), was used as a counter screen assay.
(§2) 3000 Cells (0.1×10^6/mL) were seeded in each well of 384-well plate and were treated for 24 hours in a humidified chamber with 5% CO2. Cell viability was determined by CellTiter-Glo as described by the manufacturer's instructions (Promega Corporation, Madison, WI, USA).

[2] = tested on: Molt-4 cells; test: Cell viability counter screen (CellTiter-Glo) in Molt-4 cells; type: cell-based; details: 24 hours, 10% Human Serum
Experimental: as §1, §2

[3] = target: Bcl-2 protein (Homo sapiens (Human), UniProt P10415); test: TR-FRET binding assay, Bcl-2; details: F-Bak peptide probe, GST-Bcl-2
Bcl-2 protein, sequence (P10415 other isoform, or with tags, fused parts or gaps): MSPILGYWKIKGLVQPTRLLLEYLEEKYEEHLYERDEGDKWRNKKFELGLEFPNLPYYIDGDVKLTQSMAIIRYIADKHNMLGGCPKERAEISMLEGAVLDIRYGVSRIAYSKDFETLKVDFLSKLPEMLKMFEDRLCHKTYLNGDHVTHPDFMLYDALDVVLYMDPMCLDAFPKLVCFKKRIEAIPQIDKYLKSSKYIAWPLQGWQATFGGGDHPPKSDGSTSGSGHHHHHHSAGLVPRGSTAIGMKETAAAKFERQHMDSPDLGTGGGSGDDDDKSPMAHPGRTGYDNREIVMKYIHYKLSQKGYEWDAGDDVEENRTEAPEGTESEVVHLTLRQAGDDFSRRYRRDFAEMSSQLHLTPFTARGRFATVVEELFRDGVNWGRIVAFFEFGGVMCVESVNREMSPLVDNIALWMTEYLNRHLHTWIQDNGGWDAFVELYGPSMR

[4] = target: Bcl-xL protein (Homo sapiens (Human), UniProt Q07817); test: TR-FRET binding assay, Bcl-xL; details: F-Bak peptide probe
Bcl-xL protein, sequence (Q07817 other isoform, or with tags, fused parts or gaps): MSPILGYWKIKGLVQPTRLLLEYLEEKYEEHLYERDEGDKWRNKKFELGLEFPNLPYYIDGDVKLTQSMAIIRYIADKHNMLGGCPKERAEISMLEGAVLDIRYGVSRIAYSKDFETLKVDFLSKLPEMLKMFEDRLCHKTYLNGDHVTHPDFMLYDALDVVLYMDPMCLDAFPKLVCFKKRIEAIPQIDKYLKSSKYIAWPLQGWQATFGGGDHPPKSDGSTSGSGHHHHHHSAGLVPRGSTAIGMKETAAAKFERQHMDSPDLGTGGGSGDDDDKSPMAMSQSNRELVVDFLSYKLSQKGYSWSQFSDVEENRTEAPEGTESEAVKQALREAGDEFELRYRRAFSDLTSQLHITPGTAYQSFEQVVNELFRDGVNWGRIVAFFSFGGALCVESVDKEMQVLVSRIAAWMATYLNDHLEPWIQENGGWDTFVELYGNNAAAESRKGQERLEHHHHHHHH

SMILES | EC50 ([1]; 24 hours) [nM] | EC50 [2] [nM] | Ki [3] [nM] | Ki [4] [nM] | EC50 ([1]; Homo sapiens, RS4-11, 24 h) [nM]
CN1CCC(Nc2ccc(S(=O)(=O)NC(=O)c3ccc(N4CCN5CC6=C(c7ccc(Cl)cc7)CC(C)(C)C[C@H]6OCCCOC[C@@H]5C4)cc3N3CCCOc4nc5[nH]ccc5cc43)cc2[N+](=O)[O-])CC1 [Example 31, 4-((4aS,10aR)-14-(4-chlorophenyl)-12,12-dimethyl-1,2,4a,5,8,9,10a,11,13,15-decahydro-7H,12H-benzo[f]pyrazino[2,1-c][1,8]dioxa[4]azacycloundecin-3(4H)-yl)-2-(3,4-dihydro-2H-pyrrolo[3′,2′:5,6]pyrido[2,3-b][1,4]oxazepin-1(7H)-yl)-N-((4-((1-methylpiperidin-4-yl)amino)-3-nitrophenyl)sulfonyl)benzamide] | 3.24 | 1220 | 0.51 | 5.75 | 
CO[C@H]1C[C@H](Nc2ccc(S(=O)(=O)NC(=O)c3ccc(N4CCN5CC6=C(c7ccc(Cl)cc7)CC(C)(C)C[C@H]6OCCCOC[C@@H]5C4)cc3N3CCCOc4nc5[nH]ccc5cc43)cc2[N+](=O)[O-])C1 [Example 30, 4-((4aS,10aR)-14-(4-chlorophenyl)-12,12-dimethyl-1,2,4a,5,8,9,10a,11,13,15-decahydro-7H,12H-benzo[f]pyrazino[2,1-c][1,8]dioxa[4]azacycloundecin-3(4H)-yl)-2-(3,4-dihydro-2H-pyrrolo[3′,2′:5,6]pyrido[2,3-b][1,4]oxazepin-1(7H)-yl)-N-((4-(((1r,3r)-3-methoxycyclobutyl)amino)-3-nitrophenyl)sulfonyl)benzamide] | 4.1 | > 10000 | 2.58 | 39 | 
CO[C@H]1C[C@H](CNc2ccc(S(=O)(=O)NC(=O)c3ccc(N4CCN5CC6=C(c7ccc(Cl)cc7)CC(C)(C)C[C@H]6OCCCOC[C@@H]5C4)cc3N3CCCOc4nc5[nH]ccc5cc43)cc2[N+](=O)[O-])C1 [Example 41, 4-((4aS,10aR)-14-(4-chlorophenyl)-12,12-dimethyl-1,2,4a,5,8,9,10a,11,13,15-decahydro-7H,12H-benzo[f]pyrazino[2,1-c][1,8]dioxa[4]azacycloundecin-3(4H)-yl)-2-(3,4-dihydro-2H-pyrrolo[3′,2′:5,6]pyrido[2,3-b][1,4]oxazepin-1(7H)-yl)-N-((4-((((1r,3r)-3-methoxycyclobutyl)methyl)amino)-3-nitrophenyl)sulfonyl)benzamide] | 3.93 | > 10000 | 0.224 | 25.2 | 
CC1(C)CC(c2ccc(Cl)cc2)=C2CN3CCN(c4ccc(C(=O)NS(=O)(=O)c5ccc(NC[C@H]6CC[C@H](N7CCOCC7)CO6)c([N+](=O)[O-])c5)c(N5CCCOc6nc7[nH]ccc7cc65)c4)C[C@H]3COCCCO[C@@H]2C1 [Example 37, 4-((4aS,10aR)-14-(4-chlorophenyl)-12,12-dimethyl-1,2,4a,5,8,9,10a,11,13,15-decahydro-7H,12H-benzo[f]pyrazino[2,1-c][1,8]dioxa[4]azacycloundecin-3(4H)-yl)-2-(3,4-dihydro-2H-pyrrolo[3′,2′:5,6]pyrido[2,3-b][1,4]oxazepin-1(7H)-yl)-N-((4-((((2R,5S)-5-morpholinotetrahydro-2H-pyran-2-yl)methyl)amino)-3-nitrophenyl)sulfonyl)benzamide] | 1.05 | 1450 | 0.109 | 4.61 | 
CO[C@H]1C[C@@H](CNc2ccc(S(=O)(=O)NC(=O)c3ccc(N4CCN5CC6=C(c7ccc(Cl)cc7)CC(C)(C)C[C@H]6OCCCOC[C@@H]5C4)cc3N3CCCOc4nc5[nH]ccc5cc43)cc2[N+](=O)[O-])C1 [Example 24, 4-((4aS,10aR)-14-(4-chlorophenyl)-12,12-dimethyl-1,2,4a,5,8,9,10a,11,13,15-decahydro-7H,12H-benzo[f]pyrazino[2,1-c][1,8]dioxa[4]azacycloundecin-3(4H)-yl)-2-(3,4-dihydro-2H-pyrrolo[3′,2′:5,6]pyrido[2,3-b][1,4]oxazepin-1(7H)-yl)-N-((4-((((1s,3s)-3-methoxycyclobutyl)methyl)amino)-3-nitrophenyl)sulfonyl)benzamide] | 4.9 | > 10000 | 0.248 | 10.3 | 
CC1(C)CC(c2ccc(Cl)cc2)=C2CN3CCN(c4ccc(C(=O)NS(=O)(=O)c5ccc(NC[C@H]6CC[C@](O)(CF)CC6)c([N+](=O)[O-])c5)c(N5CCCOc6nc7[nH]ccc7cc65)c4)C[C@H]3COCCCO[C@@H]2C1 [Example 14, 4-((4aS,10aR)-14-(4-chlorophenyl)-12,12-dimethyl-1,2,4a,5,8,9,10a,11,13,15-decahydro-7H,12H-benzo[f]pyrazino[2,1-c][1,8]dioxa[4]azacycloundecin-3(4H)-yl)-2-(3,4-dihydro-2H-pyrrolo[3′,2′:5,6]pyrido[2,3-b][1,4]oxazepin-1(7H)-yl)-N-((4-((((1s,4s)-4-(fluoromethyl)-4-hydroxycyclohexyl)methyl)amino)-3-nitrophenyl)sulfonyl)benzamide] | 1.64 | 1740 | 0.24 | 20.8 | 
CC1(C)CC(c2ccc(Cl)cc2)=C2CN3CCN(c4ccc(C(=O)NS(=O)(=O)c5ccc(NC[C@H]6CC[C@H](O)CO6)c([N+](=O)[O-])c5)c(N5CCCOc6nc7[nH]ccc7cc65)c4)C[C@H]3COCCCO[C@@H]2C1 [Example 12, 4-((4aS,10aR)-14-(4-chlorophenyl)-12,12-dimethyl-1,2,4a,5,8,9,10a,11,13,15-decahydro-7H,12H-benzo[f]pyrazino[2,1-c][1,8]dioxa[4]azacycloundecin-3(4H)-yl)-2-(3,4-dihydro-2H-pyrrolo[3′,2′:5,6]pyrido[2,3-b][1,4]oxazepin-1(7H)-yl)-N-((4-((((2R,5S)-5-hydroxytetrahydro-2H-pyran-2-yl)methyl)amino)-3-nitrophenyl)sulfonyl)benzamide] |  | 823 | 0.888 | 6.13 | 0.966
CC1(C)CC(c2ccc(Cl)cc2)=C2CN3CCN(c4ccc(C(=O)NS(=O)(=O)c5ccc(OC[C@H]6CC[C@@](C)(O)CC6)c([N+](=O)[O-])c5)c(N5CCCOc6nc7[nH]ccc7cc65)c4)C[C@H]3COCCCO[C@@H]2C1 [Example 49, 4-((4aS,10aR)-14-(4-chlorophenyl)-12,12-dimethyl-1,2,4a,5,8,9,10a,11,13,15-decahydro-7H,12H-benzo[f]pyrazino[2,1-c][1,8]dioxa[4]azacycloundecin-3(4H)-yl)-2-(3,4-dihydro-2H-pyrrolo[3′,2′:5,6]pyrido[2,3-b][1,4]oxazepin-1(7H)-yl)-N-((4-(((1s,4s)-4-hydroxy-4-methylcyclohexyl)methoxy)-3-nitrophenyl)sulfonyl)benzamide] | 25 | 36 |  |  | 
CO[C@]1(CF)C[C@@H](CNc2ccc(S(=O)(=O)NC(=O)c3ccc(N4CCN5CC6=C(c7ccc(Cl)cc7)CC(C)(C)C[C@H]6OCCCOC[C@@H]5C4)cc3N3CCCOc4nc5[nH]ccc5cc43)cc2[N+](=O)[O-])C1 [Example 48, 4-((4aS,10aR)-14-(4-chlorophenyl)-12,12-dimethyl-1,2,4a,5,8,9,10a,11,13,15-decahydro-7H,12H-benzo[f]pyrazino[2,1-c][1,8]dioxa[4]azacycloundecin-3(4H)-yl)-2-(3,4-dihydro-2H-pyrrolo[3′,2′:5,6]pyrido[2,3-b][1,4]oxazepin-1(7H)-yl)-N-((4-((((1r,3r)-3-(fluoromethyl)-3-methoxycyclobutyl)methyl)amino)-3-nitrophenyl)sulfonyl)benzamide] | 18.1 | 5840 |  |  | 
C[C@@H]1CC[C@H](CNc2ccc(S(=O)(=O)NC(=O)c3ccc(N4CCN5CC6=C(c7ccc(Cl)cc7)CC(C)(C)C[C@H]6OCCCOC[C@@H]5C4)cc3N3CCCOc4nc5[nH]ccc5cc43)cc2[N+](=O)[O-])OC1 [Example 21, 4-((4aS,10aR)-14-(4-chlorophenyl)-12,12-dimethyl-1,2,4a,5,8,9,10a,11,13,15-decahydro-7H,12H-benzo[f]pyrazino[2,1-c][1,8]dioxa[4]azacycloundecin-3(4H)-yl)-2-(3,4-dihydro-2H-pyrrolo[3′,2′:5,6]pyrido[2,3-b][1,4]oxazepin-1(7H)-yl)-N-((4-((((2R,5R)-5-methyltetrahydro-2H-pyran-2-yl)methyl)amino)-3-nitrophenyl)sulfonyl)benzamide] | 4.89 | 3280 |  |  | 
CC1(C)CC(c2ccc(Cl)cc2)=C2CN3CCN(c4ccc(C(=O)NS(=O)(=O)c5ccc(NC[C@H]6COCCO6)c([N+](=O)[O-])c5)c(N5CCCOc6nc7[nH]ccc7cc65)c4)C[C@H]3COCCCO[C@@H]2C1 [Example 3, N-((4-((((S)-1,4-dioxan-2-yl)methyl)amino)-3-nitrophenyl)sulfonyl)-4-((4aS,10aR)-14-(4-chlorophenyl)-12,12-dimethyl-1,2,4a,5,8,9,10a,11,13,15-decahydro-7H,12H-benzo[f]pyrazino[2,1-c][1,8]dioxa[4]azacycloundecin-3(4H)-yl)-2-(3,4-dihydro-2H-pyrrolo[3′,2′:5,6]pyrido[2,3-b][1,4]oxazepin-1(7H)-yl)benzamide] | 1.36 | 1410 |  |  | 
CC1(C)CC(c2ccc(Cl)cc2)=C2CN3CCN(c4ccc(C(=O)NS(=O)(=O)c5ccc(OC[C@H]6CC[C@](C)(O)CC6)c([N+](=O)[O-])c5)c(N5CCCOc6nc7[nH]ccc7cc65)c4)C[C@H]3COCCCO[C@@H]2C1 [Example 44, 4-((4aS,10aR)-14-(4-chlorophenyl)-12,12-dimethyl-1,2,4a,5,8,9,10a,11,13,15-decahydro-7H,12H-benzo[f]pyrazino[2,1-c][1,8]dioxa[4]azacycloundecin-3(4H)-yl)-2-(3,4-dihydro-2H-pyrrolo[3′,2′:5,6]pyrido[2,3-b][1,4]oxazepin-1(7H)-yl)-N-((4-(((1r,4r)-4-hydroxy-4-methylcyclohexyl)methoxy)-3-nitrophenyl)sulfonyl)benzamide] | 4.39 | 2270 |  |  | 
